Laboratory results published in PMC9933715 (Antimicrobial Agents and Chemotherapy, 2023).
“Also recorded” adds a separate entry of the source. Read-outs that look alike come from different tables or passages of the source.

What was measured:
[1] = tested on: HCV, strain JFH-1; format: cell-based, hepatitis C virus; details: 50 μM, JFH-1-Luc, Huh7.5, 2 days
[2] = tested on: DENV-R2A (Rluc-expressing DENV, serotype 2 strain 16681); test: microbe, parasite or virus in culture; format: cell-based, Dengue virus; details: for decrease of viral replication (DENV-R2A): 50 μM, Huh7.5, 2 days postinfection, vs DMSO; for activity at 50 µM / EC50: Dengue virus, Huh7.5, 48 h; for EC50: read-out: EC50 DENV-R2A
[3] = tested on: DENV2 16681s; test: Infectious viral titer by plaque assay, wild-type DENV2 in Huh7.5 cells; format: cell-based, Dengue virus; details: 50 μM, MOI 0.1, Huh7.5, 2 days postinfection
[4] = tested on: MHV-A59; test: Infectious viral titer by plaque assay, MHV-A59 in DBT cells; format: cell-based, mouse hepatitis virus; details: 50 μM, MOI 0.0001, 1 day postinfection
[5] = Cell viability, CellTiter-Glo luminescent assay; details: human, CC50 Huh 7.5, uninfected Huh7.5, 2 days, CellTiter-Glo
[6] = tested on: Huh7.5 cells; test: Cell viability, CellTiter-Glo luminescent assay; details: for cell viability / cytotoxicity at the used concentration: Huh7.5; for Cell viability (fold DMSO) Mean: deconvolution screen, singletons, 50 µM, uninfected Huh7.5
[7] = target: ZIKV NS3/NS4B interaction (Zika virus, UniProt A0A024B7W1); test: Coimmunoprecipitation assay of NS3/NS4B interaction; details: unpublished data
Chain of ZIKV NS3/NS4B interaction (A0A024B7W1 1503-2119): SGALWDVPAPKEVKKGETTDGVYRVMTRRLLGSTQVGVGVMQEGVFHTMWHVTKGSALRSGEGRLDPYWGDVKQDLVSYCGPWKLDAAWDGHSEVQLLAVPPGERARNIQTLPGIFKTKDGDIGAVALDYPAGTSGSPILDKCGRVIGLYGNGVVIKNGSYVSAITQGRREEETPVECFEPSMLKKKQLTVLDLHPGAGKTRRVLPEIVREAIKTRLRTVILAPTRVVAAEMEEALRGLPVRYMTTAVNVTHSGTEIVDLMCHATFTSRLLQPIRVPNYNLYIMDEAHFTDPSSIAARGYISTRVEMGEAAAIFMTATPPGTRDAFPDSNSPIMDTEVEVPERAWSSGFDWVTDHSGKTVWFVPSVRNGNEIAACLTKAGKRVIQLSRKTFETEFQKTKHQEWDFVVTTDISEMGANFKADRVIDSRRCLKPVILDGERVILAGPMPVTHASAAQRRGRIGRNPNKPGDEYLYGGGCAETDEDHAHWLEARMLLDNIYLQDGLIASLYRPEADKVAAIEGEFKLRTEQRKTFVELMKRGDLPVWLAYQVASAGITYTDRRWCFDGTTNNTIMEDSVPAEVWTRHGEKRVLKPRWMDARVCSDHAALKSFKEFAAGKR
Chain of ZIKV NS3/NS4B interaction (A0A024B7W1 2270-2520): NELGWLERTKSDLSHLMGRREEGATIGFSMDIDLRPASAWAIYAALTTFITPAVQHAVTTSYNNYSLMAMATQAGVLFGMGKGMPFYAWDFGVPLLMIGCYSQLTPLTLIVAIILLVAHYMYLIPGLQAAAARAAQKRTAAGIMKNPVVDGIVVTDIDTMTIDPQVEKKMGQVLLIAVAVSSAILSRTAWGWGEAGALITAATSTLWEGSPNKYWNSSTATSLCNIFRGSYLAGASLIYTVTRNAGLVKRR

[8] = tested on: ZIKV H/PF/2013; test: Infectious viral titer by plaque assay, ZIKV in Huh7.5 cells; format: cell-based, Zika virus; details: 50 μM, MOI 0.1, Huh7.5, 2 days postinfection
[9] = tested on: DENV vesicle packets (VP); test: Replication-independent vesicle packet induction (pIRO-D) in Huh7/Lunet-T7 cells, TEM, western blot, immunofluorescence; details: 50 μM for 12 h, pIRO-D-transfected Huh7/Lunet-T7
[10] = tested on: SARS-CoV-2; format: cell-based
[11] = tested on: sg-DENV-R2H; test: Resistance selection with selectable subgenomic replicon sg-DENV-R2H in Huh7.5 cells; format: cell-based, Dengue virus; details: 100 µM, hygromycin 500 µg/mL, 31 days of dual selection
[12] = tested on: WNV NY99; test: Extracellular infectious titer by plaque assay, WNV in Huh7.5 cells; format: cell-based, West Nile virus; details: 50 μM
[13] = tested on: ZIKV-R2A (strain FSS13025); test: microbe, parasite or virus in culture; format: cell-based; details: Zika virus, Huh7.5, 48 h; for EC50: read-out: EC50 ZIKV-R2A FSS13025; for activity at 50 µM: read-out: ZIKV-R2A replication (fold DMSO) Mean
[14] = tested on: DENV-R2A; format: cell-based, Dengue virus; details: 50 μM
[15] = tested on: DENV2 16681s; test: Intracellular DENV vRNA (RT-qPCR) and NS4B (western blot) in infected Huh7.5 cells; format: cell-based, Dengue virus; details: 50 μM, MOI 0.1, Huh7.5, 2 days postinfection
[16] = tested on: murine cancer model; details: cited from earlier work
[17] = tested on: DENV-R2A (Rluc-expressing DENV, serotype 2 strain 16681); details: same experimental set-up; cited from earlier work
[18] = tested on: Huh7.5 cells; parameters: method as in PMID 34152811; details: same experimental set-up; cited from earlier work
[19] = tested on: ZIKV-R2A (strain FSS13025); details: same experimental set-up; cited from earlier work
[20] = read-out: DENV-R2A replication (fold DMSO) Mean, deconvolution screen, singletons, 50 µM, Huh7.5, 2 days postinfection
[21] = added up to 8 h after infection, read 2 days postinfection

CC(=O)c1ccc2cn[nH]c2c1 [Compound 6A1HI, 6-acetyl-1H-indazole]
impact on HCV replication [1]: Only moderate impacts (if any) | decrease of viral replication (DENV-R2A) [2]: 714 fold | activity at 50 µM ([2]; read-out: DENV-R2A replication (Fold DMSO), 6A1HI analogues, test concentration = 50 µM, Huh7.5 cells): 3.77% | activity at 50 µM [2, 20]: 0.244% | activity at 50 µM ([2]; read-out: DENV-R2A replication (fold DMSO), Table 2, 6A1HI analogues, 50 μM, Huh7.5, 2 days postinfection): 4% | EC50 [2]: 6.5 µM | decrease of infectious DENV particle production / DENV titers [3]: more than 100 fold | decrease of released infectious virions (plaque assay) [3]: ~3 Log10-fold | decrease of infectious DENV particle production / DENV titers ([3]; listed as 6A1H1): up to 1,000 fold | impact on MHV replication [4]: Only moderate impacts (if any); also recorded: did not impede | CC50 at 48 h [5]: > 150 µM | cell viability / cytotoxicity at the used concentration ([6]; 50 μM): unaffected | cell viability / cytotoxicity at the used concentration ([6]; 50 μM, listed as 6A1H1): without any cytotoxicity | Cell viability (Fold DMSO) ([6]; 6A1HI analogues, test concentration = 50 µM, Huh7.5 cells): 0.93 Fold DMSO | Cell viability (Fold DMSO) ([6]; Table 2, 6A1HI analogues, 50 μM, Huh7.5, 2 days): 0.93 fold DMSO | Cell viability (fold DMSO) Mean [6]: 0.80 fold DMSO | CC50 ([6]; read-out: CC50 Huh 7.5, uninfected Huh7.5, 2 days, CellTiter-Glo): 177 µM | formation and stability of ZIKV NS3/NS4B interaction [7]: do not inhibit | reduction in ZIKV viral titers [8]: 2 fold | levels of viral protein NS3 (western blot) [9]: remained unchanged | anti-SARS-CoV-2 activity (reduction) [10]: less than 10 fold | impact on SARS-CoV-2 (betacoronavirus) replication ([10]; 50 μM, Huh7.5): Only moderate impacts (if any) | selection of resistant cells (genetic barrier to resistance) [11]: unable to select resistant cells | impact on WNV replication ([12]; Huh7.5): Only moderate impacts (if any) | EC50 [13]: 69.3 µM | activity at 50 µM [13]: 29% | inhibitory activity when added after infection ([14]; added 4 h after infection): retain their full inhibitory activity | inhibitory activity when added after infection [14, 21]: retained a strong inhibitory activity | intracellular levels of DENV vRNA and NS4B [15]: decrease

NC(=O)c1ccccc1NC(=O)c1ccc(-c2ccccc2)cc1 [N-(2-[aminocarbonyl]phenyl) (1,1′-biphenyl)-4-carboxamide]
efficacy in in vivo murine cancer model [16]: effective | toxicity in in vivo murine cancer model [16]: without observable toxicity

O=C(Nc1ccccc1)c1cccnc1 [NPP3C, N-phenylpyridine-3-carboxamide]
impact on HCV replication [1]: did inhibit | decrease of viral replication (DENV-R2A) [2]: 55 fold | activity at 50 µM ([2]; read-out: DENV-R2A replication (Fold DMSO), Table S3, NPP3C analogues, 50 µM, Huh7.5, 2 days postinfection): 1.31% | activity at 50 µM [2, 20]: 2.38% | activity at 50 µM ([2]; read-out: DENV-R2A replication (fold DMSO), Table 1, NPP3C analogues, 50 μM, Huh7.5, 2 days postinfection): 1% | EC50 [2]: 7.1 µM | abundance of released virions (plaque assay) [3]: reduced | impact on MHV replication [4]: did not impede | cell viability / cytotoxicity at the used concentration ([6]; 50 μM): unaffected | formation and stability of ZIKV NS3/NS4B interaction [7]: do not inhibit | reduction in ZIKV viral titers [8]: ~15 fold | levels of viral protein NS3 (western blot) [9]: remained unchanged | anti-SARS-CoV-2 activity (reduction) [10]: less than 10 fold | decrease of WNV extracellular infectious titers ([12]; MOI 0.1, Huh7.5, 2 days postinfection): 22 fold | EC50 [13]: 15.3 µM | activity at 50 µM [13]: 27% | inhibitory activity when added after infection ([14]; added 4 h after infection): retain their full inhibitory activity | inhibitory activity when added after infection [14, 21]: retained a strong inhibitory activity | intracellular levels of DENV vRNA and NS4B [15]: decrease

OC[C@@H]1Cc2ccccc2CN1 [PS-6029, OC[C@@H]1Cc2ccccc2CN1]
activity at 50 µM [2, 20]: 99% | Cell viability (fold DMSO) Mean [6]: 0.97 fold DMSO | activity at 50 µM [13]: 114%

Nc1cnccc1Cl [PS-6061, Nc1cnccc1Cl]
activity at 50 µM [2, 20]: 102% | Cell viability (fold DMSO) Mean [6]: 1.04 fold DMSO | activity at 50 µM [13]: 102%

Brc1cnc(N2CCCC2)nc1 [PS-6092, Brc1cnc(nc1)N2CCCC2]
activity at 50 µM [2, 20]: 105% | Cell viability (fold DMSO) Mean [6]: 1.11 fold DMSO | activity at 50 µM [13]: 103%

C[C@@H](O)c1cccc(C(F)(F)F)c1 [PS-6325, C[C@@H](O)c1cccc(c1)C(F)(F)F]
activity at 50 µM [2, 20]: 103% | Cell viability (fold DMSO) Mean [6]: 1.07 fold DMSO | activity at 50 µM [13]: 108%

O=C(O)C(O)c1cc(F)cc(F)c1 (centres unmarked) [PS-6482, OC(C(=O)O)c1cc(F)cc(F)c1]
activity at 50 µM [2, 20]: 101% | Cell viability (fold DMSO) Mean [6]: 1.08 fold DMSO | activity at 50 µM [13]: 110%

CC(=O)Nc1ccc(OC(F)F)cc1 [PS-6506, CC(=O)Nc1ccc(OC(F)F)cc1]
activity at 50 µM [2, 20]: 105% | Cell viability (fold DMSO) Mean [6]: 1.10 fold DMSO | activity at 50 µM [13]: 110%

O=C1CCNc2c(F)cccc21 [PS-6636, Fc1cccc2C(=O)CCNc12]
activity at 50 µM [2, 20]: 87% | Cell viability (fold DMSO) Mean [6]: 1.14 fold DMSO | activity at 50 µM [13]: 86%

Fc1cc(F)cc(-c2ccno2)c1 [PS-6845, Fc1cc(F)cc(c1)c2oncc2]
activity at 50 µM [2, 20]: 100% | Cell viability (fold DMSO) Mean [6]: 1.15 fold DMSO | activity at 50 µM [13]: 111%

COc1cc(F)c(C#N)c(F)c1 [PS-6866, COc1cc(F)c(C#N)c(F)c1]
activity at 50 µM [2, 20]: 97% | Cell viability (fold DMSO) Mean [6]: 1.01 fold DMSO | activity at 50 µM [13]: 115%

OCC1(c2ccc(Cl)cc2)CC1 [RS-1014, OCC1(CC1)c2ccc(Cl)cc2]
activity at 50 µM [2, 20]: 84% | Cell viability (fold DMSO) Mean [6]: 1.07 fold DMSO | activity at 50 µM [13]: 93%

COc1ccccc1N1CCNC(C)C1 (centres unmarked) [SS-2433, COc1ccccc1N2CCNC(C)C2]
activity at 50 µM [2, 20]: 82% | Cell viability (fold DMSO) Mean [6]: 1.09 fold DMSO | activity at 50 µM [13]: 94%

CCNC(=O)N1CCC(O)CC1 [SS-4002, CCNC(=O)N1CCC(O)CC1]
activity at 50 µM [2, 20]: 103% | Cell viability (fold DMSO) Mean [6]: 1.05 fold DMSO | activity at 50 µM [13]: 98%

CSc1ccccc1N1CCNCC1 [SS-4074, CSc1ccccc1N2CCNCC2]
activity at 50 µM [2, 20]: 79% | Cell viability (fold DMSO) Mean [6]: 0.92 fold DMSO | activity at 50 µM [13]: 100%

COc1ccc2cc[nH]c2n1 [SS-4327, COc1ccc2cc[nH]c2n1]
activity at 50 µM [2, 20]: 98% | Cell viability (fold DMSO) Mean [6]: 1.01 fold DMSO | activity at 50 µM [13]: 108%

O=C(O)[C@@H](O)c1ccc(Br)cc1 [SS-4660, O[C@H](C(=O)O)c1ccc(Br)cc1]
activity at 50 µM [2, 20]: 104% | Cell viability (fold DMSO) Mean [6]: 1.10 fold DMSO | activity at 50 µM [13]: 102%

Nc1cncnc1 [SS-6051, Nc1cncnc1]
activity at 50 µM [2, 20]: 104% | Cell viability (fold DMSO) Mean [6]: 0.96 fold DMSO | activity at 50 µM [13]: 105%

COc1cc2c(cc1O)CN(C)C[C@H]2c1ccc(O)cc1 [cherylline]
EC50 [17]: 8.8 µM | CC50 [18]: > 250 µM | EC50 [19]: 20.3 µM
